US20160039880A1 (priority 2012, published 2016)

These molecules were tested against Human recombinant cyclophilin A (Cyp A) (Homo sapiens, UniProt P62937) (assay: Protease-free PPIase assay;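 further: cis to trans isomerization of SUC-AAPF-pNA by 2 nM enzyme, read as absorbance at 330 nm over 300 s at 10 °C, catalytic rate corrected for uncatalyzed background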).
Chain of Human recombinant cyclophilin A (Cyp A) (P62937 whole entry): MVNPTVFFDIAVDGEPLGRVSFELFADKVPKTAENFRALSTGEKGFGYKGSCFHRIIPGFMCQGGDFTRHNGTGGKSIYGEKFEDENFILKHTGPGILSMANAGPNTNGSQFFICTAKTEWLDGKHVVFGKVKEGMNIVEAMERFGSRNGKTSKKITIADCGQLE
Work on `CC[C@H]1NC(=O)[C@@H]([C@H](O)[C@H](C)CCN(C)Cc2ccc(F)cn2)N(C)C(=O)[C@@H](C(C)C)N(C)C(=O)[C@@H](CC(C)C)N(C)C(=O)[C@@H](CC(C)C)N(C)C(=O)[C@H](C)NC(=O)[C@@H](C)NC(=O)[C@@H](CC(C)C)N(C)C(=O)[C@@H](C(C)C)NC(=O)[C@H](CC(C)C)N(C)C(=O)[C@@H](C)N(C)C1=O` [Compound DP, [(3R,4R,5S)-4-Hydroxy-3-methyl-5-(methylamino)-1-({5-fluoro-pyridin-2-ylmethyl}-methylamino)-hexanoic acid]^1[(R)-methyl-Sar]^3 cyclosporin A] yielded a Ki of 16.2 nM.
`CC[C@H]1NC(=O)[C@@H]([C@H](O)[C@H](C)CCN(C)Cc2ccc(Cl)cn2)N(C)C(=O)[C@@H](C(C)C)N(C)C(=O)[C@@H](CC(C)C)N(C)C(=O)[C@@H](CC(C)C)N(C)C(=O)[C@H](C)NC(=O)[C@@H](C)NC(=O)[C@@H](CC(C)C)N(C)C(=O)[C@@H](C(C)C)NC(=O)[C@H](CC(C)C)N(C)C(=O)[C@@H](C)N(C)C1=O` [Compound DQ, [(3R,4R,5S)-4-Hydroxy-3-methyl-5-(methylamino)-1-({5-chloro-pyridin-2-ylmethyl}-methylamino)-hexanoic acid]^1[(R)-methyl-Sar]^3 cyclosporin A] showed a Ki of 11 nM.
For `CC[C@H]1NC(=O)[C@@H]([C@H](O)[C@H](C)CCCCN(C)C)N(C)C(=O)[C@@H](C(C)C)N(C)C(=O)[C@@H](CC(C)C)N(C)C(=O)[C@@H](CC(C)C)N(C)C(=O)[C@H](C)NC(=O)[C@@H](C)NC(=O)[C@@H](CC(C)C)N(C)C(=O)[C@@H](C(C)C)NC(=O)[C@H](CC(C)C)N(C)C(=O)[C@@H](C)N(C)C1=O` [Compound KF, [(5R,6R,7S)-1-(dimethylamino)-6-hydroxy-5-methyl-7-(methylamino)-octanoic acid]^1[(R)-methyl-Sar]^3 cyclosporin A], the Ki was 7.8 nM.
With `CC[C@H]1NC(=O)[C@@H]([C@H](O)[C@H](C)CCN2CCCCC2)N(C)C(=O)[C@@H](C(C)C)N(C)C(=O)[C@@H](CC(C)C)N(C)C(=O)[C@@H](CC(C)C)N(C)C(=O)[C@H](C)NC(=O)[C@@H](C)NC(=O)C(CC(C)C)N(C)C(=O)[C@@H](C(C)C)NC(=O)[C@H](CC(C)C)N(C)C(=O)[C@@H](C)N(C)C1=O` (stereo partly drawn) [Compound EA, [(3R,4R,5S)-4-Hydroxy-3-methyl-5-(methylamino)-1-(piperidin-1-yl)-hexanoic acid]^1[(R)-methyl-Sar]^3 cyclosporin A] the Ki was 22 nM.
`CC[C@H]1NC(=O)[C@@H]([C@H](O)[C@H](C)CCN(C)Cc2ncccc2C(F)(F)F)N(C)C(=O)[C@@H](C(C)C)N(C)C(=O)[C@@H](CC(C)C)N(C)C(=O)[C@@H](CC(C)C)N(C)C(=O)[C@H](C)NC(=O)[C@@H](C)NC(=O)[C@@H](CC(C)C)N(C)C(=O)[C@@H](C(C)C)NC(=O)[C@H](CC(C)C)N(C)C(=O)[C@@H](C)N(C)C1=O` [Compound DR, [(3R,4R,5S)-4-Hydroxy-3-methyl-5-(methylamino)-1-({3-trifluoromethyl-pyridin-2-ylmethyl}-methylamino)-hexanoic acid]^1[(R)-methyl-Sar]^3 cyclosporin A] showed a Ki of 8.4 nM.
`CC[C@H]1NC(=O)[C@@H]([C@H](O)[C@H](C)CCCCN2CCOCC2)N(C)C(=O)[C@@H](C(C)C)N(C)C(=O)[C@@H](CC(C)C)N(C)C(=O)[C@@H](CC(C)C)N(C)C(=O)[C@H](C)NC(=O)[C@@H](C)NC(=O)[C@@H](CC(C)C)N(C)C(=O)[C@@H](C(C)C)NC(=O)[C@H](CC(C)C)N(C)C(=O)[C@@H](C)N(C)C1=O` [Compound KG, [(5R,6R,7S)-6-hydroxy-5-methyl-7-(methylamino)-1-(N-morpholino)-octanoic acid]^1[(R)-methyl-Sar]^3 cyclosporin A] showed a Ki of 3.8 nM.
